Columns and labels:
NURR-1/RXRγ = target: T1, NURR-1/RXRγ (Homo sapiens, UniProt P48443); assay: Transactivation test, NURR-1-Gal4/RXRγ, luciferase reporter in Cos-7 cells; type: cell-based; details: for EC50: Cos-7 cells, NURR-1-Gal4/RXRγ, luciferase reporter, read-out: hNurr1_RXRgFL EC50; for Emax: COS-7, induction level relative to reference XCT0135908 at 2×10^−5 M (=100%), read-out: hNurr1_RXRgFL Emax (%)
T1 construct: expressed in transfected cells; host or cells: Cos-7 cells
Procedure: (§1) The ability of the compounds according to the invention to behave as an activator of the heterodimers formed by the NURR-1 nuclear receptor and the RXR nuclear receptors was measured by means of an in vitro test. A transactivation test was used as primary selection (screening) test. Cos-7 cells were cotransfected with a plasmid expressing a chimera of the human NURR-1-Gal4 receptor, a plasmid expressing the human RXR receptor (RXRα or RXRγ receptor) and a 5Gal4pGL3-TK-Luc reporter plasmid. The transfctions were carried out using a chemical agent (Jet PEI). The transfected cells were distributed into 384-well plates and left to stand for 21 hours. At time 24 hours the culture medium was changed. The test products were added (final concentration of between 10^''4 and 3×10^-10 M) to the culture medium. After incubation overnight, the lucifeiase expression was measured after addition of SteadyGlo according to the instructions of the manufacturer (Promega). […] The induction levels (Emax) were calculated relative to the basal activity of each heterodimer.

NURR-1/RXRα = target: T2, NURR-1/RXRα (Homo sapiens, UniProt P19793); assay: Transactivation test, NURR-1-Gal4/RXRα, luciferase reporter in Cos-7 cells; type: cell-based; details: for EC50: Cos-7 cells, NURR-1-Gal4/RXRα, luciferase reporter, read-out: hNurr1_RXRaFL EC50; for Emax: COS-7, induction level relative to reference XCT0135908 at 2×10^−5 M (=100%), read-out: hNurr1_RXRaFL Emax (%)
T2 construct: expressed in transfected cells; host or cells: Cos-7 cells
Procedure: as §1

[1] = induction level relative to reference XCT0135908 at 2×10^−5 M (=100%)

T2 sequence (P19793 whole entry, the tested form may be a part): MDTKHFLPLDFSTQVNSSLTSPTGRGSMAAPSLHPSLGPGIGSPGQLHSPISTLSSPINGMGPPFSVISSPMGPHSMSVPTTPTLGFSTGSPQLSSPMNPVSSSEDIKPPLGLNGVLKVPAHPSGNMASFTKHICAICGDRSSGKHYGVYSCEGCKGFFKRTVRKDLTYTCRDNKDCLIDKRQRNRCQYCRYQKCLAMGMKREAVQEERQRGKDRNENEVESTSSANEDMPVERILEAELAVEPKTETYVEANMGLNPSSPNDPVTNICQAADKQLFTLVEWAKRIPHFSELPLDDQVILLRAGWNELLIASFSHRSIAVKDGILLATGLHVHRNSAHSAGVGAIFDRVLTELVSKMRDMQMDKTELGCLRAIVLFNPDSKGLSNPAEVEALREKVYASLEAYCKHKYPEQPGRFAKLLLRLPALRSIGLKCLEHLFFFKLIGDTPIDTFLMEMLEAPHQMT
T2 sequence (P43354 whole entry partner, the tested form may be a part): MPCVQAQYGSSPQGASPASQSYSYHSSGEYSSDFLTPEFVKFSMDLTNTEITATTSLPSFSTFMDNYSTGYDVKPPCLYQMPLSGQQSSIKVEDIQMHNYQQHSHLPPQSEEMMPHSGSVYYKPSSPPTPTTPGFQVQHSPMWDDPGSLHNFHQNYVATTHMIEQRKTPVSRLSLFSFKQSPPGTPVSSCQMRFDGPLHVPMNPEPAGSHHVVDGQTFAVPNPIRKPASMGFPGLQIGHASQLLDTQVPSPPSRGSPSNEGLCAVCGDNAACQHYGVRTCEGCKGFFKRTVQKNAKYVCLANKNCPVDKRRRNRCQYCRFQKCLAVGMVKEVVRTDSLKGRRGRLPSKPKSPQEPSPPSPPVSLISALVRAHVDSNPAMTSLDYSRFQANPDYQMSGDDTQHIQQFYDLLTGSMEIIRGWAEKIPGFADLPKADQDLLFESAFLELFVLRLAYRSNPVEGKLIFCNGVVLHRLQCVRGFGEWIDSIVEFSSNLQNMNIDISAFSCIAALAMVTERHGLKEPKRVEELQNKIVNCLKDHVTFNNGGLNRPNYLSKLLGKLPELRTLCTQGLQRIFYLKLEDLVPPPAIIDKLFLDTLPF
T2 sequence (P04386 1-147 partner limits assumed): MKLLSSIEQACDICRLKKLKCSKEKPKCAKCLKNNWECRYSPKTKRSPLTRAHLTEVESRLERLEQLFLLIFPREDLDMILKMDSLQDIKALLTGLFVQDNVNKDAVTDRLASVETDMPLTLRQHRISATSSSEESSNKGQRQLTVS
T1 sequence (P48443 whole entry, the tested form may be a part): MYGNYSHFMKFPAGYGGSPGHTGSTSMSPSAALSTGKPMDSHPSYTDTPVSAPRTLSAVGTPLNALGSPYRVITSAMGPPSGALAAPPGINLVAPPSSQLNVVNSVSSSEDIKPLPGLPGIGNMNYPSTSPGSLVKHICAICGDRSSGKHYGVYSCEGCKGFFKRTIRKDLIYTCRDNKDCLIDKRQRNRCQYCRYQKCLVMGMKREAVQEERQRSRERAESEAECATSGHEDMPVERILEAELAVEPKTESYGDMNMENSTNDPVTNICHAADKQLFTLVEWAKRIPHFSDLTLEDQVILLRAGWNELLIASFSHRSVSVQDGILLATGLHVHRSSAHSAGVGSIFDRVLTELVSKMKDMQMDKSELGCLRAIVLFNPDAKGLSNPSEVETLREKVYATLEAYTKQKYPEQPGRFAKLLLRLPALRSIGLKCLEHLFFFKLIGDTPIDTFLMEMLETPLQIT
T1 sequence (P43354 whole entry partner, the tested form may be a part): as the sequence (P43354 whole entry partner, the tested form may be a part) above
T1 sequence (P04386 1-147 partner limits assumed): as the sequence (P04386 1-147 partner limits assumed) above

| EC50 (NURR-1/RXRγ) [nM] | hNurr1_RXRgFL Emax (%) (NURR-1/RXRγ; [1]) | EC50 (NURR-1/RXRα) [nM] | hNurr1_RXRaFL Emax (%) (NURR-1/RXRα; [1]) | Emax (NURR-1/RXRγ) [%] | Emax (NURR-1/RXRα) [%] | Compound |
| --- | --- | --- | --- | --- | --- | --- |
| 17 | 95 | 10 | 107 |  |  | CC1COc2cc(C(F)(F)F)ccc2N1c1cccc(N2CC(C(=O)O)C2)c1 (single isomer, unassigned; isomer 2) [Example 124-2, 1-[3-[3-methyl-7-(trifluromethyl)-2,3-dihydro-1,4-benzoxazin-4-yl]phenyl]azetidine-3-carboxylic acid, isomer 2] |
| 42 |  | 14 |  | 97 | 102 | Cn1cc(-c2cccc(N3CC(C(=O)O)C3)c2)c2ccc(C(F)(F)F)cc21 [Example 30, 1-[3-[1-methyl-6-(trifluoromethyl)indol-3-yl]phenyl]azetidine-3-carboxylic acid] |
|  |  | 1 |  |  | 61 | CC1(C)CN(CC(F)(F)F)c2c(cc(C(F)(F)F)cc2-c2cccc(N3CC(C(=O)O)C3)c2)O1 [Example 215, tert-butylammonium 1-[3-[2,2-dimethyl-4 (2,2,2-trifluoromethyl)-7-(trifluoromethyl)-3H-1,4-benzoxazin-5-yl]phenyl]azetidine-3-carboxylate] |
|  |  | 2950 |  |  | 70 | CC1(C)Oc2cc(C#N)ccc2N(c2cccc(N3CC(C(=O)O)C3)c2)C1=O [Example 254, tert-butylammonium 1-[3-(7-cyano-2,2-dimethyl-3-oxo-1,4-benzoxazin-4-yl)phenyl]azetidine-3-carboxylate] |
|  |  | 0.79 |  |  | 77 | CN1CC2(CCC2)Oc2cc(C(C)(C)C)cc(-c3cccc(N4CC(C(=O)O)C4)c3)c21 [Example 213, tert-butylammonium 1-[3-(7-tert-butyl-4-methyl-spiro[3H-1,4-benzoxazine-2,1′-cyclobutane]-5-yl)phenyl]azetidine-3-carboxylate] |
|  |  | 5 |  |  | 99 | CC1(C)CC(c2cccc(N3CC(C(=O)O)C3)c2)c2ccc(C(F)(F)F)cc2O1 (stereo not shown) [Example 270, tert-butylammonium 1-[3-[2,2-dimethyl-7-(trifluoromethyl)chroman-4-yl]phenyl]azetidine-3-carboxylate] |
|  |  | 114 |  |  | 89 | CC(C)c1ccc2c(c1)CC(C)(C)CN2c1cccc(N2CC(C(=O)O)C2)c1 [Example 245, tert-butylammonium 1-[3-(6-isopropyl-3,3-dimethyl-2,4-dihydroquinolin-1-yl)phenyl]azetidine-3-carboxylate] |

Continued, compound first:

| Compound | EC50 (NURR-1/RXRγ) [nM] | hNurr1_RXRgFL Emax (%) (NURR-1/RXRγ; [1]) | EC50 (NURR-1/RXRα) [nM] | hNurr1_RXRaFL Emax (%) (NURR-1/RXRα; [1]) | Emax (NURR-1/RXRγ) [%] | Emax (NURR-1/RXRα) [%] |
| --- | --- | --- | --- | --- | --- | --- |
| COCCCNC(=O)C1CN(c2cccc(-n3cc(C)c4cc(C(F)(F)F)ccc43)c2)C1 [Example 172, N-(3-methoxvpypropyl)-1-[3-[3-methyl-5-(trifluoromethyl)indol-1-yl]phenyl]azetidine-3-carboxamide] | 5 |  | < 1 |  | 114 | 104 |
| CC(C)COc1ccc(C(F)(F)F)cc1-c1cccc(N2CC(C(=O)O)C2)c1 [Example 94, 1-[3-[2-isobutoxy-5-(trifluoromethyl)phenyl]phenyl]azetidine-3-carboxylic acid] |  |  | 18 |  |  | 48 |
| Cc1cc(-c2cc(N(C)C)cc(C(F)(F)F)c2)cc(N2CC(C(=O)O)C2)c1 [Example 2, 1-[3-[3-(dimethylamino)-5-(trifluoromethyl)phenyl]-5-methylphenyl]azetidine-3-carboxylate acid] | 32 |  | 19 |  | 119 | 119 |
| Cc1cc(N2CC(C(=O)O)C2)cc(-n2cc(C)c3cc(C(F)(F)F)ccc32)c1 [Example 49, 1-[3-methyl-5-[3-methyl-5-(trifluoromethyl)indol-1-yl]phenyl]azetidine-3-carboxylic acid] | 1 |  | 1 |  | 114 | 99 |
| COc1ccccc1C(C)Oc1ccc(C(F)(F)F)cc1-c1cccc(N2CC(C(=O)O)C2)c1 (stereo not shown) [Example 95, 1-[3-[2-[1-(2-methoxyphenyl)ethoxy]-5-(triflurooemethyl)phenyl]phenyl]azetidine-3-carboxylic acid] |  |  | 20 |  |  | 46 |

From patent US20170066717A1, “NEW PHENYLAZETIDINECARBOXYLATE OR -CARBOXAMIDE COMPOUNDS” (INVENTIVA, priority 2014, published 2017)
